≈ marks a conversion by molar mass, not a printed value. *1 amine or outer side, *2 acyl side, *3 side chain or, on linkers, in order; H or OH if unused. Where a SMILES comes first, the peptide text is derived from it. [ ]: non-standard residue; d: D form. The star is where a group is joined. X19 = CCCC[C@@H](OC[C@@H](C)N[*:1])[C@@H](CC1CC1)C(=O)[*:2]; X2 = CCCCCC[C@@H](OC[C@@H](C)N[*:1])[C@@H](C)C(=O)[*:2]; aThr = C[C@H](O)[C@H](N)C(=O)O; NMeL = CN[C@@H](CC(C)C)C(=O)O; Chg = N[C@H](C(=O)O)C1CCCCC1; NMeNva = CCC[C@H](NC)C(=O)O; Dap = NC[C@H](N)C(=O)O; X3 = NC[C@@H](F)C*; X7 = NCC(O)C*
system: Escherichia coli (E. coli) strain CFT073 ATCC 700928; type: cell-based; conditions: ATCC 700928, 22 h
Procedure, shortened: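 MICs were read after 22 h at 35 °C, with bacteria added to a final OD600 of 0.0005. Compounds were serially diluted 2-fold over ten concentrations from a top of 64, 4, 0.5 or 0.13 μg/mL (protocols 1–4). Medium was cation-adjusted Mueller Hinton II broth plus 0.002% Tween-80, following CLSI M07-A8.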

| Structure (SMILES) | MIC |
| --- | --- |
| CCCCCC[C@H]1OC(=O)CNC(=O)[C@H]([C@H](C)O)NC(=O)[C@H](CN)NC(=O)[C@H](C2CCCCC2)NC(=O)[C@H](CC(C)C)N(C)C(=O)[C@@H]1Cc1cccc(C)c1 [Example 119, (6S,9S,12S,15S,18R,19R)-9-(aminomethyl)-12-cyclohexyl-19-hexyl-15-isobutyl-16-methyl-18-(m-tolylmethyl)-6-[(1S)-1-hydroxyethyl]-1-oxa-4,7,10,13,16-pentazacyclononadecane-2,5,8,11,14,17-hexone] | 3.1 µM (≈ 2.39 µg/mL) |
| CCCCCCCCCC[C@H]1OC(=O)CNC(=O)[C@H](CO)NC(=O)[C@H](CO)NC(=O)[C@H](C2CCCCC2)NC(=O)[C@H](CC(C)C)N(C)C(=O)[C@@H]1C [Example 7, (6S,9S,12S,15S,18R,19R)-12-cyclohexyl-19-decyl-6,9-bis(hydroxymethyl)-15-isobutyl-16,18 dimethyl-1-oxa-4,7,10,13,16-pentazacyclononadecane-2,5,8,11,14,17-hexone] | 3.1 µM (≈ 2.24 µg/mL) |
| CCCCCC[C@H]1OC(=O)CNC(=O)[C@H](CNC(=O)C2CNC2)NC(=O)[C@H](CN)NC(=O)[C@H](C2CCCCC2)NC(=O)[C@H](CC(C)C)N(C)C(=O)[C@@H]1C [Example 72, N-(((6S,9S,12S,15S,18R,19R)-9-(Aminomethyl)-12-cyclohexyl-19-hexyl-15-isobutyl-16,18-dimethyl-2,5,8,11,14,17-hexaoxo-1-oxa-4,7,10,13,16-pentaazacyclononadecan-6-yl)methyl)azetidine-3-carboxamide] | 12 µM (≈ 8.99 µg/mL) |
| CCCCCC[C@H]1OC(=O)CNC(=O)[C@H]([C@H](C)O)NC(=O)[C@H](CN)NC(=O)[C@H](CC(C)C)NC(=O)[C@H](CC(C)C)N(C)C(=O)[C@@H]1C [Example 90, (6S,9S,12S,15S,18R,19R)-9-(aminomethyl)-19-hexyl-12,15-diisobutyl-16,18-dimethyl-6-[(1S)-1-hydroxyethyl]-1-oxa-4,7,10,13,16-pentazacyclononadecane-2,5,8,11,14,17-hexone] | 21 µM (≈ 13.8 µg/mL) |
| CCCCCCCCCC[C@H]1OC(=O)CNC(=O)[C@H](CO)NC(=O)[C@H](CN)NC(=O)[C@H]([C@H](C)CC)NC(=O)[C@H](CC(C)C)N(C)C(=O)[C@@H]1C [Example 12, (6S,9S,12S,15S,18R,19R)-9-(aminomethyl)-19-decyl-6-(hydroxymethyl)-15-isobutyl-16,18-dimethyl-12-[(1R)-1-methylpropyl]-1-oxa-4,7,10,13,16-pentazacyclononadecane-2,5,8,11,14,17-hexone] | 4.7 µM (≈ 3.28 µg/mL) |
| CCCCCCC1OC(=O)CNC(=O)[C@H]([C@H](C)O)NC(=O)[C@H](CN)NC(=O)[C@H]([C@H](C)CC)NC(=O)[C@H](CC(C)C)N(C)C(=O)C1(F)F (stereo partly drawn) [Example 61, (6S,9S,12S,15S)-9-(Aminomethyl)-12-((R)-sec-butyl)-18,18-difluoro-19-hexyl-6-((S)-1-hydroxyethyl)-15-isobutyl-16-methyl-1-oxa-4,7,10,13,16-pentaazacyclononadecane-2,5,8,11,14,17-hexaone] | 6.3 µM (≈ 4.26 µg/mL) |
| CCCCCC[C@H]1OC(=O)CNC(=O)[C@H]([C@H](C)O)NC(=O)[C@H](CN)NC(=O)[C@H](C2Cc3ccccc3C2)NC(=O)[C@H](CCC)N(C)C(=O)[C@@H]1C [Example 142, (6S,9S,12S,15S,18R,19R)-9-(aminomethyl)-19-hexyl-12-indan-2-yl-16,18-dimethyl-15-propyl-6-[(1S)-1-hydroxyethyl]-1-oxa-4,7,10,13,16-pentazacyclononadecane-2,5,8,11,14,17-hexone] | 8.8 µM (≈ 6.17 µg/mL) |
| CCCCCC[C@H]1OC[C@@H](C)NC(=O)[C@H](COCC(O)CN)NC(=O)[C@H](CN)NC(=O)[C@H](C2CCCCC2)NC(=O)[C@H](CC(C)C)N(C)C(=O)[C@@H]1C (stereo partly drawn) [Example 173, (3R,6S,9S,12S,15S,18R,19R)-6-((3-Amino-2-hydroxypropoxy)methyl)-9-(aminomethyl)-12-cyclohexyl-19-hexyl-15-isobutyl-3,16,18-trimethyl-1-oxa-4,7,10,13,16-pentaazacyclononadecane-5,8,11,14,17-pentaone] (cyclo([Chg][Dap]S(X7)[X2][NMeL])) | 12 µM (≈ 8.88 µg/mL) |
| CCCC[C@H]1OC[C@@H](C)NC(=O)[C@H]([C@H](C)O)NC(=O)[C@H](CN)NC(=O)[C@H](C2CCCCC2)NC(=O)[C@H](CCC)N(C)C(=O)[C@@H]1CC1CC1 [Example 147, (3R,6S,9S,12S,15S,18R,19R)-9-(Aminomethyl)-19-butyl-12-cyclohexyl-18-(cyclopropylmethyl)-6-((S)-1-hydroxyethyl)-3,16-dimethyl-15-propyl-1-oxa-4,7,10,13,16-pentaazacyclononadecane-5,8,11,14,17-pentaone] (cyclo([Chg][Dap][aThr][X19][NMeNva])) | 12 µM (≈ 8.15 µg/mL) |
| CCC[C@H]1C(=O)N[C@@H](C2CCCCCC2)C(=O)N[C@@H](CN)C(=O)N[C@@H]([C@H](C)O)C(=O)NCC(=O)O[C@H](CCC2CC3CCC2C3)[C@@H](C)C(=O)N1C (stereo partly drawn) [Example 129, (6S,9S,12S,15S,18R,19R)-9-(aminomethyl)-12-cycloheptyl-16,18-dimethyl-19-(2-norbornan-2-ylethyl)-15-propyl-6-[(1S)-1-hydroxyethyl]-1-oxa-4,7,10,13,16-pentazacyclononadecane-2,5,8,11,14,17-hexone] | 0.66 µM (≈ 0.474 µg/mL) |
| CCCCCCCCCC[C@H]1OC(=O)CNC(=O)[C@H](C(C)(C)O)NC(=O)[C@H](CO)NC(=O)[C@H]([C@@H](C)CC)NC(=O)[C@H](CC(C)C)N(C)C(=O)[C@@H]1C [Example 21, (6S,9S,12S,15S,18R,19R)-19-decyl-9-(hydroxymethyl)-6-(1-hydroxy-1-methyl-ethyl)-15-isobutyl-16,18-dimethyl-12-[(1S)-1-methylpropyl]-1-oxa-4,7,10,13,16-pentazacyclononadecane-2,5,8,11,14,17-hexone] | 50 µM (≈ 36.3 µg/mL) |
| CCCCCC[C@H]1OC(=O)CNC(=O)[C@H]([C@H](C)O)NC(=O)[C@H](CN)NC(=O)[C@H](C2CCCCC2)NC(=O)[C@H](CC(C)C)N(C)C(=O)[C@@H]1CC(F)(F)F [Example 68, (6S,9S,12S,15S,18R,19R)-9-(Aminomethyl)-12-cyclohexyl-19-hexyl-6-((S)-1-hydroxyethyl)-15-isobutyl-16-methyl-18-(2,2,2-trifluoroethyl)-1-oxa-4,7,10,13,16-pentaazacyclononadecane-2,5,8,11,14,17-hexaone] | 3.1 µM (≈ 2.32 µg/mL) |
| CCC[C@H]1C(=O)N[C@@H](C2CCCCCC2)C(=O)N[C@@H](CN)C(=O)N[C@@H]([C@H](C)O)C(=O)NCC(=O)O[C@H](CC2CC3CCC2CC3)[C@@H](C)C(=O)N1C (stereo partly drawn) [Example 79, (6S,9S,12S,15S,18R,19R)-9-(Aminomethyl)-19-(bicyclo[2.2.2]octan-2-ylmethyl)-12-cycloheptyl-6-((S)-1-hydroxyethyl)-16,18-dimethyl-15-propyl-1-oxa-4,7,10,13,16-pentaazacyclononadecane-2,5,8,11,14,17-hexaone] | 0.78 µM (≈ 0.561 µg/mL) |

same assay, conditions: E. coli CFT073 ATCC 700928; Mueller Hinton II cation adjusted Broth with 0.002% v/v Tween-80; 35° C. for 22 hours; lowest concentration that completely prevented bacterial growth

| Structure (SMILES) | MIC |
| --- | --- |
| CCCCCC[C@H]1OC[C@@H](C)NC(=O)[C@H](COC[C@H](F)CN)NC(=O)[C@H](CN)NC(=O)[C@H](C2CCCCC2)NC(=O)[C@H](CC(C)C)N(C)C(=O)[C@@H]1C [Example 154, (3R,6S,9S,12S,15S,18R,19R)-6-(((R)-3-Amino-2-fluoropropoxy)methyl)-9-(aminomethyl)-12-cyclohexyl-19-hexyl-15-isobutyl-3,16,18-trimethyl-1-oxa-4,7,10,13,16-pentaazacyclononadecane-5,8,11,14,17-pentaone] (cyclo([Chg][Dap]S(X3)[X2][NMeL])) | 12 µM (≈ 8.9 µg/mL) |

From patent publication US11279735B2, “Cyclic peptide antibiotics” (priority 2017, dated 2022)
